Measured values as given in patent US6358885B1, “Substituted phenylheterocyclic herbicides” (Mississippi State University, priority 1992, dated 2002).

Legend:
chickweed [1] = assay: Test C preemergence/postemergence greenhouse plant response rating 0 to 100; assay type: in vivo, Stellaria media; conditions: for Plant response rating, Chickweed: 0 to 100 scale
Source text: (§1) The compounds evaluated in this test were formulated in a non-phytoxic solvent and applied to the soil surface before plant seedlings emerged (preemergence application), to water that covered the soil surface (flood application), and to plants that were in the one-to-four leaf stage (postemergence application). A sandy loam soil was used for the preemergence and postemergence tests, while a silt loam soil was used in the flood test. Water depth was approximately 2.5 cm for the flood test and was maintained at this level for the duration of the test. Plant species in the preemergence and postemergence tests consisted of barley (Hordeum vulgare), bedstraw (Galium aparine), blackgrass (Alopecurus myosuroides), chickweed (Stellaria media), corn (Zea mays), cotton (Gossypium hirsutum), crabgrass (Digitaria sanguinalis), downy brome (Bromus tectorum), giant foxtail (Setaria faberii), lambsquarters (Chenopodium album), morningglory (Ipomoea hederacea), pigweed ([…]), rape (Brassica napus), ryegrass (Lolium multiflorum), sorghum (Sorghum bicolor), soybean (Glycine max), speedwell (Veronica persica), sugar beet (Beta vulgaris), velvetleaf (Abutilon theophrasti), wheat (Triticum aestivum), wild buckwheat (Polygonum convolvulus), and wild oat (Avena fatua). All plant species were planted one day before application of the compound for the preemergence portion-of this test. Plantings of these species were adjusted to produce plants of appropriate size for the post-emergence portion of the test. […] All plant species were grown using normal greenhouse practices. Visual evaluations of injury expressed on treated plants, when compared to untreated controls, were recorded approximately fourteen to twenty one days after application of the test compound. […] A dash (-) response means no test result.

cotton = assay: as above; assay type: in vivo, Gossypium hirsutum; conditions: for Plant response rating, Cotton: 0 to 100 scale
Source text: as §1

soybean = assay: as above; assay type: in vivo, Glycine max; conditions: for Plant response rating, Soybean: 0 to 100 scale
Source text: as §1

lambsquarters = assay: as above; assay type: in vivo, Chenopodium album; conditions: for Plant response rating Lambsquarters: 0 to 100 scale
Source text: as §1

sorghum = assay: Test B preemergence/postemergence greenhouse plant response rating 0 to 10; assay type: in vivo, Sorghum bicolor; conditions: 0 to 10 scale
Procedure, shortened: (§2)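 Planted seeds are treated preemergence with compound dissolved in a non-phytotoxic solvent, while postemergence applications go onto plants of two to eighteen cm. Plants stay in the greenhouse twelve to sixteen days and are then rated visually relative to controls.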

cheatgrass = assay: as above; assay type: in vivo, Bromus secalinus; conditions: for Plant response rating, Cheatgrass: 0 to 10 scale
Procedure, shortened: as §2

barley = assay: Test C preemergence/postemergence greenhouse plant response rating 0 to 100; assay type: in vivo, Hordeum vulgare; conditions: for Plant response rating Barley Igri: 0 to 100 scale
Source text: as §1

corn = assay: Test B preemergence/postemergence greenhouse plant response rating 0 to 10; assay type: in vivo, Zea mays; conditions: for Plant response rating, Corn: 0 to 10 scale
Procedure, shortened: as §2

chickweed [2] = assay: as above; assay type: in vivo, Stellaria media; conditions: POSTEMERGENCE
Procedure, shortened: as §2

For `C#CCOc1cc(-c2nn3c(c2Br)CCCC3)c(F)cc1Cl` [Compound 26], the “Plant response rating, Chickweed” value (chickweed [1]; POSTEMERGENCE, 62 g/ha) was 100, the “Plant response rating, Chickweed” value (chickweed [1]; POSTEMERGENCE, 250 g/ha) was 100 and the “Plant response rating, Chickweed” value (chickweed [1]; PREEMERGENCE, 62 g/ha) was 100. The “Plant response rating, Chickweed” value (chickweed [1]; PREEMERGENCE, 250 g/ha) was 100, the “Plant response rating (0 to 100), Chickweed” value (chickweed [1]; PREEMERGENCE, Rate 4 g/ha) was 50 and the “Plant response rating (0 to 100), Chickweed” value (chickweed [1]; Rate 4 g/ha, POSTEMERGENCE) was 50. The “Plant response rating (0 to 100), Chickweed” value (chickweed [1]; Rate 16 g/ha, POSTEMERGENCE) was 80, the “Plant response rating (0 to 100), Chickweed” value (chickweed [1]; Rate 16 g/ha, PREEMERGENCE) was 50 and the “Plant response rating, Cotton” value (cotton; POSTEMERGENCE, 62 g/ha) was 100. For the same compound, the “Plant response rating, Cotton” value (cotton; POSTEMERGENCE, 250 g/ha) was 100, the “Plant response rating (0 to 100), Cotton” value (cotton; POSTEMERGENCE, Rate 4 g/ha) was 100 and the “Plant response rating, Cotton” value (cotton; PREEMERGENCE, 62 g/ha) was 0. The “Plant response rating, Cotton” value (cotton; PREEMERGENCE, 250 g/ha) was 100, the “Plant response rating (0 to 100), Cotton” value (cotton; PREEMERGENCE, Rate 4 g/ha) was 0 and the “Plant response rating (0 to 100), Cotton” value (cotton; Rate 16 g/ha, POSTEMERGENCE) was 100. The “Plant response rating (0 to 100), Cotton” value (cotton; Rate 16 g/ha, PREEMERGENCE) was 0, the “Plant response rating, Soybean” value (soybean; POSTEMERGENCE, 62 g/ha) was 60 and the “Plant response rating, Soybean” value (soybean; POSTEMERGENCE, 250 g/ha) was 60. For the same compound, the “Plant response rating (0 to 100), Soybean” value (soybean; POSTEMERGENCE, Rate 4 g/ha) was 20, the “Plant response rating, Soybean” value (soybean; PREEMERGENCE, 250 g/ha) was 100 and the “Plant response rating (0 to 100), Soybean” value (soybean; PREEMERGENCE, Rate 4 g/ha) was 0. The “Plant response rating (0 to 100), Soybean” value (soybean; Rate 16 g/ha, POSTEMERGENCE) was 50, the “Plant response rating (0 to 100), Soybean” value (soybean; Rate 16 g/ha, PREEMERGENCE) was 0 and the “Plant response rating Lambsquarters” value (lambsquarters; POSTEMERGENCE, 62 g/ha) was 100. The “Plant response rating Lambsquarters” value (lambsquarters; POSTEMERGENCE, 250 g/ha) was 100, the “Plant response rating (0 to 100), Lambsquarters” value (lambsquarters; POSTEMERGENCE, Rate 4 g/ha) was 80 and the “Plant response rating Lambsquarters” value (lambsquarters; PREEMERGENCE, 62 g/ha) was 100. The “Plant response rating Lambsquarters” value (lambsquarters; PREEMERGENCE, 250 g/ha) was 100, the “Plant response rating (0 to 100), Lambsquarters” value (lambsquarters; PREEMERGENCE, Rate 4 g/ha) was 80 and the “Plant response rating (0 to 100), Lambsquarters” value (lambsquarters; Rate 16 g/ha, POSTEMERGENCE) was 80. The “Plant response rating (0 to 100), Lambsquarters” value (lambsquarters; Rate 16 g/ha, PREEMERGENCE) was 100, the “Plant response rating, Sorghum” value (sorghum; POSTEMERGENCE, Rate 50 g/ha) was 5 and the “Plant response rating, Sorghum” value (sorghum; POSTEMERGENCE, Rate 200 g/ha) was 6. The “Plant response rating, Sorghum” value (sorghum; PREEMERGENCE, Rate 50 g/ha) was 2, the “Plant response rating, Sorghum” value (sorghum; Rate 200 g/ha, PREEMERGENCE) was 4 and the “Plant response rating (0 to 10 scale), Cheatgrass” value (cheatgrass; POSTEMERGENCE, Rate 50 g/ha) was 5. For the same compound, the “Plant response rating, Cheatgrass” value (cheatgrass; POSTEMERGENCE, Rate 200 g/ha) was 7, the “Plant response rating, Cheatgrass” value (cheatgrass; PREEMERGENCE, Rate 50 g/ha) was 6 and the “Plant response rating, Cheatgrass” value (cheatgrass; Rate 200 g/ha, PREEMERGENCE) was 7. The “Plant response rating Barley Igri” value (barley; POSTEMERGENCE, 62 g/ha) was 40, the “Plant response rating Barley Igri” value (barley; POSTEMERGENCE, 250 g/ha) was 50 and the “Plant response rating Barley Igri” value (barley; PREEMERGENCE, 62 g/ha) was 0. For the same compound, the “Plant response rating Barley Igri” value (barley; PREEMERGENCE, 250 g/ha) was 20, the “Plant response rating (0 to 100), Barley Igri” value (barley; PREEMERGENCE, Rate 4 g/ha) was 0 and the “Plant response rating (0 to 100), Barley Igri” value (barley; Rate 4 g/ha, POSTEMERGENCE) was 20. The “Plant response rating (0 to 100), Barley Igri” value (barley; Rate 16 g/ha, POSTEMERGENCE) was 20, the “Plant response rating (0 to 100), Barley Igri” value (barley; Rate 16 g/ha, PREEMERGENCE) was 0 and the “Plant response rating (0 to 10 scale), Corn” value (corn; POSTEMERGENCE, Rate 50 g/ha) was 5. For the same compound, the “Plant response rating, Corn” value (corn; POSTEMERGENCE, Rate 200 g/ha) was 5, the “Plant response rating, Corn” value (corn; PREEMERGENCE, Rate 50 g/ha) was 4 and the “Plant response rating, Corn” value (corn; Rate 200 g/ha, PREEMERGENCE) was 6. For the same compound, the “Plant response rating (0 to 10 scale), Chickweed” value (chickweed [2]; Rate 50 g/ha) was 10 and the “Plant response rating, Chickweed” value (chickweed [2]; Rate 200 g/ha, 0 to 10 scale) was 10.
